The NIST ThermoML archive (doi:10.1016/j.jct.2017.11.005)

Settings: Gas, Capillary tube (Ostwald / Ubbelohde) method

O=C=O [carbon dioxide]
Settings	viscosity [mPa·s]
308.2 K, 1200 kPa	0.0153
308.2 K, 2070 kPa	0.0154
308.2 K, 11330 kPa	0.0638
308.2 K, 22090 kPa	0.0882
308.2 K, 34970 kPa	0.1068
308.2 K, 68930 kPa	0.1441
308.2 K, 101200 kPa	0.1733
308.2 K, 150520 kPa	0.222
323.2 K, 1270 kPa	0.0161
323.2 K, 2050 kPa	0.0163
323.2 K, 5040 kPa	0.0174
323.2 K, 11440 kPa	0.0398
323.2 K, 20670 kPa	0.0711
323.2 K, 50820 kPa	0.112
323.2 K, 105530 kPa	0.1606
323.2 K, 150430 kPa	0.1953
